Assay results: BindingDB's records for doi:10.1016/j.bmcl.2007.11.060 (Amgen, 2008)

Assay: Antagonist activity at CXCR3 assessed as ITAC-mediated migration of human PBMC in presence of 100% human plasma

Question: With `CCS(=O)(=O)CCN(C(=O)Cc1ccc(F)c(C(F)(F)F)c1)[C@H](C)c1nc2ccccc2n1-c1ccc(C#N)cc1` [(R)-N-(1-(1-(4-cyanophenyl)-1H-benzo[d]imidazol-2-yl)ethyl)-N-(2-(ethylsulfonyl)ethyl)-2-(4-fluoro-3-(trifluoromethyl)phenyl)acetamide] as the molecule, how does the IC50 read?
Answer: The IC50 was 521 nM.

Question: Which IC50 does the source give for `CCS(=O)(=O)CCN(C(=O)Cc1ccc(F)c(C(F)(F)F)c1)[C@H](C)c1nc2ncccc2cc1-c1ccc(C#N)cc1` [(R)-N-(1-(3-(4-cyanophenyl)-1,8-naphthyridin-2-yl)ethyl)-N-(2-(ethylsulfonyl)ethyl)-2-(4-fluoro-3-(trifluoromethyl)phenyl)acetamide] here?
Answer: Its IC50 is 48 nM.

Question: For `CCS(=O)(=O)CCN(C(=O)Cc1ccc(F)c(C(F)(F)F)c1)[C@H](C)c1nc2c(c(=O)n1-c1ccc(C#N)cc1)CCCN2C` [(R)-N-(1-(3-(4-cyanophenyl)-8-methyl-4-oxo-3,4,5,6,7,8-hexahydropyrido[2,3-d]pyrimidin-2-yl)ethyl)-N-(2-(ethylsulfonyl)ethyl)-2-(4-fluoro-3-(trifluoromethyl)phenyl)acetamide], which IC50 is on record?
Answer: Its IC50 is 88 nM.

Question: With `CCS(=O)(=O)CCN(C(=O)Cc1ccc(F)c(C(F)(F)F)c1)[C@H](C)c1nc2ccccn2c1-c1ccc(C#N)cc1` [(R)-N-(1-(3-(4-cyanophenyl)H-imidazo[1,2-a]pyridin-2-yl)ethyl)-N-(2-(ethylsulfonyl)ethyl)-2-(4-fluoro-3-(trifluoromethyl)phenyl)acetamide] as the molecule, how does the IC50 read?
Answer: Its IC50 is 72 nM.

Question: Which IC50 does the source give for `CCS(=O)(=O)CCN(C(=O)Cc1ccc(F)c(C(F)(F)F)c1)[C@H](C)c1nc2ccccc2cc1-c1ccc(C#N)cc1` [(R)-N-(1-(3-(4-cyanophenyl)quinolin-2-yl)ethyl)-N-(2-(ethylsulfonyl)ethyl)-2-(4-fluoro-3-(trifluoromethyl)phenyl)acetamide] here?
Answer: The IC50 was 72 nM.
